Assay results from US20260158043A1, “STEROID AS A MODULATOR OF GABAA RECEPTOR” (UMECRINE COGNITION AB, priority 2021, published 2026).
Values joined by “and” are separate entries in the source; they are usually repeats but may differ in a detail not shown here. Equal entries are not always repeated. “Also recorded” adds a separate entry of the source.

What was measured:
[1] = molecular target: T1, human α3β3γ2 GABAA receptor subtype (Homo sapiens, UniProt P18507+P28472+P34903); experiment: Patch-clamp (Dynaflow) of GABA-mediated current in HEK-293 cells expressing α3β3γ2L GABAA receptor; format: cell-based
T1 construct: expressed in transfected cells
Source text: (§1) Aim: To investigate the effect of 3α-ethynyl-3β-hydroxy-5α-androstan-17-one on the GABAA receptor function both in absence and in presence of the GAMS tetrahydrodeoxycorticosterone (THDOC) by the Dynaflow™ system (Fluicell) on HEK-293 cells recombinantly expressing human α1β2γ2L GABAA receptor or human α3β3γ2 GABAA receptor subtype. In these tests the protocol was optimized to be similar to the physiological conditions in the synaptic cleft.
(§2) Preparation of cell lines: Cell lines permanently expressing a functional human GABAA receptor was made as follows. The GABAA receptor subunits α1β2γ2L or α3β3γ2 including introduced Kozac sequences just before the start codons were subcloned into mammalian expression vectors comprising Geneticin, Hygromycin B, and Zeocin resistance, respectively. A HEK-293 cell line stably expressing the three GABAA receptor subunits (α1β2γ2L, α3β3γ2) separately for α1β2γ2L and α3β3γ2 subunit composition was produced by transfection of the subunits one at a time. The transfection was followed by selection with the appropriate antibiotics, cell separation with the use of subunit specific antibodies (β2 and γ2, Abcam, Upstate/Chemicon/Milipore, Sigma Aldrich), and production of single cell colonies. Produced cell lines were analysed with immunocytochemistry for the three GABAA receptor subunits, followed by selection of a suitable cell line showing for the GABAA receptor normal and good reactivity towards GABA and THDOC.
(§3) HEK-293 cells (obtained from Pasteur Institute, Paris, France), permanently transfected with the human 1β2γ2L or α3β3γ2 GABAA receptor subtypes, were seeded at a density of 3×10^4/25 cm^2 in a culture flask. The transfected cells were used for patch-clamp experiments 3 days after seeding. When using the cells for patch-clamp experiments the cells were washed twice with oxygen-bubbled EC-solution (see below). About 5 mL EC was then added and the cells were kept in the incubator for about 15 minutes. After 15 minutes the cells came loose from the bottom of the flask and were separated by carefully sucking a couple of times with a Pasteur pipette.
(§4) Dynaflow™ system with Resolve chips (Fluicell) was used for all patch-clamp experiments. The DF-16 Proll chips (Fluicell) used have non-sticky inserts for the wells. The channel width was 150 μm and the height 50 μm. The well volume was 280 μL. Run time at the […] is […]. The pump settings were as follow: Omnifix 2 mL syringe with inner diameter of 9.65 mm was used. The syringe pump flow rate for DF-16 Pro II chip was 26 μL/min.
Steroids and GABA: GABA (Sigma Aldrich) was dissolved in EC-solution by ultrasound for about 40 minutes to the concentration of 10 mM in room temperature. All steroids were dissolved to the concentration of 6 mM in DMSO. The DMSO concentration was 0.1% in all end-solutions, including the wash solution (EC) and the solution with GABA alone. End-solutions are the solutions added into the wells of the chip.
Electrophysioloqy: Patch electrodes were pulled from 1.5 mm O.D., 0.86 mm I.D. borosilicate capillary glass without filament. […] The intracellular solution consisted of (in mM): 140 Cs-gluconate, 3.0 NaCl, 1.2 MgCl2, 1.0 EGTA, 10 HEPES. pH was adjusted to 7.2 with CsOH. The extracellular (EC) solution used during recordings contained (in mM): 137 NaCl, 5.0 KCl, 1.0 CaCl2), 1.2 MgCl2, 10 HEPES, 10 glucose. pH was adjusted with NaOH to 7.4. All chemicals in the intracellular and extracellular solutions were obtained from Sigma-Aldrich. After compensating for the liquid junction potential, a steady holding potential of −17 mV was used in all experiments. In physiological conditions the HEK-293 has a resting potential at −40 mV and a low concentration of chloride ions inside the cell. By using the holding potential of −17 mV and the intracellular solution with low chloride ion concentration the chloride ions flux into the cell when the receptors are activated. […]

[2] = molecular target: T2, human α1β2γ2L GABAA receptor (Homo sapiens, UniProt P14867+P18507+P47870); experiment: Patch-clamp (Dynaflow) of GABA-mediated current in HEK-293 cells expressing α1β2γ2L GABAA receptor; format: cell-based
T2 construct: expressed in transfected cells
Source text: as §1, §2, §3, §4
Steroids and GABA: GABA (Sigma Aldrich) was dissolved in EC-solution by ultrasound for about 40 minutes to the concentration of 10 mM in room temperature. All steroids were dissolved to the concentration of 6 mM in DMSO. […]

[3] = Weight increase in growing male rats, experiment 2 (10 days s.c., with progesterone + estradiol); format: in vivo, Male Wistar rats; conditions: for Weight difference compared to vehicle (Mean±SE) / Weight difference versus E+P control rats (Mean±SE): 10 days, n=9
Description: Animals: Male Wistar rats were kept in group cages, with three animals per cage, from delivery and throughout the period of experiments. The individual animals were marked so that they could be identified throughout the experiment duration. The animals weight an average of 152 g upon arrival. A reversed light dark (12:12 h) cycle was used with the dark period onset at 0600 hrs. Altogether fifty-six (56) rats were used in this study (experiment 1+2). The animals were delivered from the breeder Taconic (Denmark). The study protocol was approved by the Regional Ethics Committee of Umea University, Sweden.
Feeding: Standard chow and water were available ad libitum. A reversed 12-h dark-light cycle with lights off at 10.00 am and lights on at 22.00 pm was used. For identification, the rats were marked with a permanent marker on the tail. To avoid the endogenous allopregnanolone fluctuations that are present in the oestrous cycle of female rats, male rats were chosen (Frye et al. 2000). The animals were allowed to acclimatize for at least 3 weeks before start of the experimental sessions. During this period, the rats were repeatedly handled and allowed habituation to the new environment and to all new procedures, to minimize stress during the experiments.
After 14 days of triad housing, handling and injection training of the animals, the animals were treated for 5 days with IV injections in experiment 1 and 10 days with a daily subcutaneous injection of the assigned treatment in experiment 2 (Table 3 and 4). The injections were given at 08.00 every morning. The animals were weighed the day before onset of the treatment and at the last day of injection i.e. on the 5th or 10th day of treatment. Weight was taken at the time of the last injection. […] The results are shown in FIG. 2 (experiment 1) and FIG. 3 (experiment 2), respectively.

GABAA receptor = conditions: taught in WO 09/142594, table 3; cited from earlier work
[4] = molecular target: T3, human α4β3δ GABAA receptor (Homo sapiens, UniProt O14764+P28472+P48169); experiment: Patch-clamp (Dynaflow) of GABA-mediated current at α4β3δ GABAA receptor; format: cell-based; conditions: agonist effect
T3 construct: expressed in transfected cells
Source text: (§5) Aim: the aim of this project was to study the effect of 3α-ethynyl-3β-hydroxy-5α-androstan-17-one and the positive GABAA receptor modulator THDOC on GABA-mediated current response, at human α1β2γ2L, α2β3γ2S, α4β3δ and α5β3γ2L subunit GABAA receptors.
(§6) Study design: The current response mediated by chloride ion flux through the GABAA receptors expressing the α1β2γ2L, α2β3γ2S, α3β3γ2L, α4β3δ and α5β3γ2L subunit was studied with the use of patch clamp technique combined with the Dynaflow™ application system and the Resolve chip. This provides rapid applications of and removal of substances. The material, protocol and methods were identical to the ones used in Examples 1 and 2. 1 μM 3α-ethynyl-3β-hydroxy-5α-androstan-17-one was studied on GABA mediated current response at α1β2γ2L, α2β3γ2S, α4β3δ and α5β3γ2L GABAA receptor subtypes (FIG. 4, Table 6). In addition, the effect of 1-1000 nM THDOC was studied on GABA mediated current response at the α1β2γ2L, α3β2γ2, and α5β3γ2L receptor subtypes (Table 8). The binding site of THDOC is in the […] region of the receptor. To achieve stable response, the cells were exposed to steroid (THDOC) in 20 seconds before GABA application.
(§7) The amount GABA used depends on the receptor subtype intra or extra-synaptic type, α1β2γ2L=30 μM; α2β3γ2S=45 μM; α4β3δ=1 μM and α5β3γ2L=0.3 μM GABA.

[5] = molecular target: T4, human α5β3γ2L GABAA receptor (Homo sapiens, UniProt P18507+P28472+P31644); experiment: Patch-clamp (Dynaflow) of GABA-mediated current at α5β3γ2L GABAA receptor; format: cell-based
T4 construct: expressed in transfected cells
Source text: as §5, §6, §7
(§8) THDOC: The following standard protocol was used for the different receptor subtypes: • α1β2γ2L: 20 s preincubation of 30-1000 nM THDOC 40 ms application of 30 μM GABA±steroids. • α3β2γ2: 20 s preincubation of 1-1000 nM THDOC followed by 1 s application of 100 μM GABA±steroids. • α5β3γ2L: 20 s preincubation of 30-1000 nM THDOC followed by 6 s application of 0.3 μM GABA±steroids.

[6] = molecular target: α3β2γ2 GABAA receptor subtype (Homo sapiens, UniProt P28472+P34903); experiment: Patch-clamp (Dynaflow), THDOC on GABA-mediated current at α3β2γ2 receptor subtype; format: cell-based; conditions: 1-1000 nM THDOC 20 s preincubation, 100 μM GABA 1 s, read-out: Emax for effect on GABA mediated current response
Description: as §6, §8

[7] = 1 mg/kg s.c. + 5 mg/kg progesterone + 10 μg/kg 17β-estradiol
[8] = 5 mg/kg s.c. + 5 mg/kg progesterone + 10 μg/kg 17β-estradiol

T1 sequence (P34903 29-492): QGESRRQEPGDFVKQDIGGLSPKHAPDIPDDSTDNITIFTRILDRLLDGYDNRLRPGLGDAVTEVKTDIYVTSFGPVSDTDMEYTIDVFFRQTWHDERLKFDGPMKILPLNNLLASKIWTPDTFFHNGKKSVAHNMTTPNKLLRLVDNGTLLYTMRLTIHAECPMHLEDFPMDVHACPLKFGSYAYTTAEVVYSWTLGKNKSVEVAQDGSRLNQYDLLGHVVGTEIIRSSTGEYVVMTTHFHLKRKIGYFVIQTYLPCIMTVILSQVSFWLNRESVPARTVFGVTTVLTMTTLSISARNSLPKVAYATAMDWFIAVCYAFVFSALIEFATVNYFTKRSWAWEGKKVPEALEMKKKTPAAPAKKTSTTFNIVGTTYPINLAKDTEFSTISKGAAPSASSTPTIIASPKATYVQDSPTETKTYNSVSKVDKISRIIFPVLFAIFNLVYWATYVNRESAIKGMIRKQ
T1 sequence (P28472 26-473): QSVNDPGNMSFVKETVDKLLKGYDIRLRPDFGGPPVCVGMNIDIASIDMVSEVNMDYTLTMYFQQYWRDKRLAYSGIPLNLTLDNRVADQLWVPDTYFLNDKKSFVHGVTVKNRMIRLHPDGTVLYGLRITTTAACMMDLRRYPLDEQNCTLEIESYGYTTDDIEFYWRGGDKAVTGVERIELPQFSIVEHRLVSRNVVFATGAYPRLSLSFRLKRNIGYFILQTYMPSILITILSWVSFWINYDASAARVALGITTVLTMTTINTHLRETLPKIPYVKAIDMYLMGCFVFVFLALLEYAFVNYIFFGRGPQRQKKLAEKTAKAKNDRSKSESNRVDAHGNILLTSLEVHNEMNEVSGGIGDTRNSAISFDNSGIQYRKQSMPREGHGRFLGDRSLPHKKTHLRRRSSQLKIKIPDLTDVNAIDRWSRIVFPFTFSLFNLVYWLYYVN
T1 sequence (P18507 40-475): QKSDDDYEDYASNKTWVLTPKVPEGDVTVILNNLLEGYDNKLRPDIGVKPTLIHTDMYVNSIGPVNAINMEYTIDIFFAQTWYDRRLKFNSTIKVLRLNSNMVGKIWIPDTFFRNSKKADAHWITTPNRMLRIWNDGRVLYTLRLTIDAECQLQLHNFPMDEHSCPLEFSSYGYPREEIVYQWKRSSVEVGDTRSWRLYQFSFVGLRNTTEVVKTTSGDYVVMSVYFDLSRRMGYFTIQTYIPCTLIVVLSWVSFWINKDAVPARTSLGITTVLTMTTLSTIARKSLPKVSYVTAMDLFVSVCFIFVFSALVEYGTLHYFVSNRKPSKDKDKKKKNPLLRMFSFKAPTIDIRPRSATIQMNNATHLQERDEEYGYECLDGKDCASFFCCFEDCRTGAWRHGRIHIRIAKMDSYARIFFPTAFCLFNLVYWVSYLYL
T4 sequence (P31644 32-462): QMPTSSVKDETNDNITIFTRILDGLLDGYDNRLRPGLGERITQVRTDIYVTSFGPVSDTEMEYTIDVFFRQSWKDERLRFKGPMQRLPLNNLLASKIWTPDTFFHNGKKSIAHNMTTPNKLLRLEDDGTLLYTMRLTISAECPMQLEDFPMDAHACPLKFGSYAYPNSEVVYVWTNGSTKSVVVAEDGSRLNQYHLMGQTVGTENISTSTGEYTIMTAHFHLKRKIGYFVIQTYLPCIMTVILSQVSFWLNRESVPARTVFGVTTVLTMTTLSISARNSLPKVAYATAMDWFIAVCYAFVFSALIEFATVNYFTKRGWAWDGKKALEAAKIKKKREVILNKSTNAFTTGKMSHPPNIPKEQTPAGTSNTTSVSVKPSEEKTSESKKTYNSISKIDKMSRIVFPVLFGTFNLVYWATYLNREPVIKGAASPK
T4 sequence (P28472 26-473): as the sequence (P28472 26-473) above
T4 sequence (P18507 40-475): as the sequence (P18507 40-475) above
T2 sequence (P14867 28-456): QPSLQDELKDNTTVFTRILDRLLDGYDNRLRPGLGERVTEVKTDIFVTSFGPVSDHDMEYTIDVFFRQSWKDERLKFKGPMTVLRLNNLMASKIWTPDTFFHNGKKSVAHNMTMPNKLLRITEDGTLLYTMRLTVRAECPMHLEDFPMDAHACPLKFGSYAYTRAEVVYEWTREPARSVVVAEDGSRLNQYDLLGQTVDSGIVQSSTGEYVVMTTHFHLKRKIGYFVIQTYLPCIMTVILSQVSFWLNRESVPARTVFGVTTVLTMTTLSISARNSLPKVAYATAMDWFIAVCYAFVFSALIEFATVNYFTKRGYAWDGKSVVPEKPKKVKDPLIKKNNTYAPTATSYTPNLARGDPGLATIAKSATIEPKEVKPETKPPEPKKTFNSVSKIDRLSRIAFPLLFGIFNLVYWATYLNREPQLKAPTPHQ
T2 sequence (P47870 25-512 limits assumed): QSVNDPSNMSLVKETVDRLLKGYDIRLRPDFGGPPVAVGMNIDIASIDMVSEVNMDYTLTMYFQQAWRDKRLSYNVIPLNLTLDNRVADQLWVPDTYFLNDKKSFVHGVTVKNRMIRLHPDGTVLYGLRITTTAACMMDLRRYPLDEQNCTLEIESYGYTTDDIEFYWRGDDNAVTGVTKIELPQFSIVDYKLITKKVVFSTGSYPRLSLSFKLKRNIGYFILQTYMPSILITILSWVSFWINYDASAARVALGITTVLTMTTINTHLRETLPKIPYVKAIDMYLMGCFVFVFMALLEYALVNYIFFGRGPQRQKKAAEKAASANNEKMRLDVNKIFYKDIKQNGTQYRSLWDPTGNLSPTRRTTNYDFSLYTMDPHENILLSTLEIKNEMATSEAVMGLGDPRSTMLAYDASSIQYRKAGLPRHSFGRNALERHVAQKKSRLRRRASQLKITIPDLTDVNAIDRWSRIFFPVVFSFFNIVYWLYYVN
T2 sequence (P18507 40-475): as the sequence (P18507 40-475) above
T3 sequence (P48169 36-554): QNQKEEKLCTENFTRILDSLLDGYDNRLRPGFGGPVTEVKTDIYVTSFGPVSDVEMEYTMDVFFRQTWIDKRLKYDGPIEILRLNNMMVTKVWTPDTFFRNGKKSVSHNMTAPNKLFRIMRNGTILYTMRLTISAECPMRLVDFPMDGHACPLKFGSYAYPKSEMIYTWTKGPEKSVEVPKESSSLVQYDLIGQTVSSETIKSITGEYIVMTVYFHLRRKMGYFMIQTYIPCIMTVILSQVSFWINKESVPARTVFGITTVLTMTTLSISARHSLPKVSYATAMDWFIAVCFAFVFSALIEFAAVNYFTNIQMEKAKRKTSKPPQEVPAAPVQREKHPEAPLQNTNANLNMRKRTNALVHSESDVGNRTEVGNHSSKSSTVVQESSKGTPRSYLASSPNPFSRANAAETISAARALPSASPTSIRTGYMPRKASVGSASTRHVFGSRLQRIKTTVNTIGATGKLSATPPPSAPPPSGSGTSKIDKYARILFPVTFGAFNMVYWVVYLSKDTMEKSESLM
T3 sequence (P28472 26-473): as the sequence (P28472 26-473) above
T3 sequence (O14764 17-452 limits assumed): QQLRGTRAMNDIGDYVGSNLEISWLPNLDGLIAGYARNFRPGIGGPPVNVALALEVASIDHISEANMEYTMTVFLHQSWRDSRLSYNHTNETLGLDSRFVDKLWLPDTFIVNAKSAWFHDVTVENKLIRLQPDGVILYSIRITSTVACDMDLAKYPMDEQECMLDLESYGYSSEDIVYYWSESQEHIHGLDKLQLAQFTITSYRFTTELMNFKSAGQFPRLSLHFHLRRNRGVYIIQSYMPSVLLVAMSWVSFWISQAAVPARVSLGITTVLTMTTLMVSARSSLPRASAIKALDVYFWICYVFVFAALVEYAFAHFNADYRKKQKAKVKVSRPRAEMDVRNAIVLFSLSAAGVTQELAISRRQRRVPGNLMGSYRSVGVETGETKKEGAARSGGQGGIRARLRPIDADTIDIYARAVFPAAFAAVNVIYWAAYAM
α3β2γ2 GABAA receptor subtype, sequence (P34903 29-492): as the sequence (P34903 29-492) above
α3β2γ2 GABAA receptor subtype, sequence (P28472 26-473): as the sequence (P28472 26-473) above
α3β2γ2 GABAA receptor subtype, sequence (P18507 40-475 partner): as the sequence (P18507 40-475) above

## C#C[C@]1(O)CC[C@@]2(C)[C@@H](CC[C@@H]3[C@@H]2CC[C@]2(C)C(=O)CC[C@@H]32)C1 [3α-ethynyl-3β-hydroxy-5α-androstan-17-one]
[1]; 0.003 μM compound + 100 μM GABA, α3β3γ2L
  Effect on 100 μM GABA-mediated current response, Mean ± SEM %: +2.5 ± 2.9%
[1]; 0.003 μM compound, absence of GABA, α3β3γ2L
  Own effect, Baseline shift: −1.0 ± 0.4 pA
[1]; 0.01 μM compound + 100 μM GABA, α3β3γ2L
  Effect on 100 μM GABA-mediated current response, Mean ± SEM %: −3.0 ± 2.3%
[1]; 0.01 μM compound, absence of GABA, α3β3γ2L
  Own effect, Baseline shift: −0.7 ± 0.7 pA
[1]; 0.03 μM compound + 100 μM GABA, α3β3γ2L
  Effect on 100 μM GABA-mediated current response, Mean ± SEM %: −2.0 ± 1.0%
[1]; 0.03 μM compound, absence of GABA, α3β3γ2L
  Own effect, Baseline shift: −0.8 ± 1.2 pA
[1]; 0.1 μM compound + 100 μM GABA, α3β3γ2L
  Effect on 100 μM GABA-mediated current response, Mean ± SEM %: −4.0 ± 3.0%
[1]; 0.1 μM compound, absence of GABA, α3β3γ2L
  Own effect, Baseline shift: −1.0 ± 0.8 pA
[1]; 0.3 μM compound + 100 μM GABA, α3β3γ2L
  Effect on 100 μM GABA-mediated current response, Mean ± SEM %: −10% and −10 ± 2.3%
[1]; 0.3 μM compound, absence of GABA, α3β3γ2L
  Own effect, Baseline shift: +0.9 ± 0.5 pA
[1]; 1 μM compound, absence of GABA, α3β3γ2L
  Own effect, Baseline shift: −1.2 ± 0.5 pA
[1]; 3 μM compound + 100 μM GABA, α3β3γ2L
  Effect on 100 μM GABA-mediated current response, Mean ± SEM %: −74 ± 0.9%
[1]; 3 μM compound, absence of GABA, α3β3γ2L
  Own effect, Baseline shift: −0.4 ± 0.4 pA
[1]; 10 μM compound + 100 μM GABA, α3β3γ2L
  Effect on 100 μM GABA-mediated current response, Mean ± SEM %: −76 ± 1.9%
[1]; 10 μM compound, absence of GABA, α3β3γ2L
  Own effect, Baseline shift: +1.1 + 2.4 pA
[1]; 0.003-10 μM, absence of GABA
  Activation of the α3β3γ2L GABAA receptor in absence of GABA: do not activate
[1]; 0.003-10 μM, best fit curve, α3β3γ2L
  Imax on 100 μM GABA-mediated current response: −78%
[1]; 0.003-10 μM, best fit curve, α3β3γ2L, read-out: IC50 on 100 μM GABA-mediated current response
  IC50: 800 nM
[2]; 1 μM compound + THDOC + GABA
  Antagonism of 100 nM THDOC-enhancement at α1β2γ2: no significant agonistic or antagonistic effect; also recorded: No effect
[3]; [7]
  Weight difference compared to vehicle (Mean±SE): -33 ± 4.4 g
  Weight difference versus E+P control rats (Mean±SE): -23.9 ± 4.4 g
[3]; [8]
  Weight difference compared to vehicle (Mean±SE): -29.6 ± 5.2 g
  Weight difference versus E+P control rats (Mean±SE): -20.4 ± 5.2 g
[3]; s.c., 10 days of treatment
  Difference in weight after 10 days of treatment compared to vehicle: over 20%
GABAA receptor
  Effect as a GAMSA or GAMS: no effect

## C[C@]12CC[C@@H](O)C[C@@H]1CC[C@@H]1[C@@H]2CC[C@]2(C)[C@@H](C(=O)CO)CC[C@@H]12 [THDOC, 3α, 21-dihydroxy-5α-pregnan-20-one]
[2]; HEK293, α1β2γ2L, 30-1000 nM THDOC 20 s preincubation, 30 μM GABA 40 ms, read-out: Emax for effect on GABA mediated current response
  Emax: 115%
[2]; agonist effect
  Effect on GABA-mediated current at α1β2γ2L (in words): significantly enhances
[2]; α1β2γ2L, 30-1000 nM THDOC 20 s preincubation, 30 μM GABA 40 ms, read-out: EC50 for effect on GABA mediated current response
  EC50: 70 nM
[4]
  Effect on GABA-mediated current at α4β3δ (in words): significantly enhances
[5]; agonist effect
  Effect on GABA-mediated current at α5β3γ2L (in words): significantly enhances
[5]; α5β3γ2L, 30-1000 nM THDOC 20 s preincubation, 0.3 μM GABA 6 s, read-out: EC50 for effect on GABA mediated current response
  EC50: 68 nM
[5]; α5β3γ2L, 30-1000 nM THDOC 20 s preincubation, 0.3 μM GABA 6 s, read-out: Emax for effect on GABA mediated current response
  Emax: 131%
[6]
  Emax: 80%
